Data reported in the NIST ThermoML archive (doi:10.1016/j.jct.2014.07.019).
Numbers after ± are expanded uncertainties.

Assay: xn = mol fraction of the nth substance listed
Conditions: 100 kPa, Liquid; for speed of sound: Frequency=3 MHz, Sing-around technique in a fixed-path interferometer; for mass density: Vibrating tube method

CCCCOCC(C)O (stereo not given) [1-butoxy-2-propanol] + CC(C)O
speed of sound (293.15 K, x1 = 0.0518): 1178.7 ± 1.2 m/s
speed of sound (293.15 K, x1 = 0.1029): 1188.9 ± 1.2 m/s
speed of sound (293.15 K, x1 = 0.1532): 1197.5 ± 1.2 m/s
speed of sound (293.15 K, x1 = 0.2019): 1205.8 ± 1.2 m/s
speed of sound (293.15 K, x1 = 0.2529): 1213.9 ± 1.2 m/s
speed of sound (293.15 K, x1 = 0.3032): 1221.8 ± 1.2 m/s
speed of sound (293.15 K, x1 = 0.4059): 1234.6 ± 1.2 m/s
speed of sound (293.15 K, x1 = 0.5048): 1244.9 ± 1.2 m/s
speed of sound (293.15 K, x1 = 0.604): 1253.3 ± 1.2 m/s
speed of sound (293.15 K, x1 = 0.7012): 1261.2 ± 1.2 m/s
speed of sound (293.15 K, x1 = 0.8028): 1267.7 ± 1.2 m/s
speed of sound (293.15 K, x1 = 0.8545): 1270.6 ± 1.2 m/s
speed of sound (293.15 K, x1 = 0.9056): 1273.4 ± 1.3 m/s
speed of sound (293.15 K, x1 = 0.954): 1275.9 ± 1.3 m/s
speed of sound (293.15 K, x1 = 1): 1279 ± 1.3 m/s
mass density (293.15 K, x1 = 0.0518): 795.249 ± 0.15 kg/m3
mass density (293.15 K, x1 = 0.1029): 803.695 ± 0.15 kg/m3
mass density (293.15 K, x1 = 0.1532): 811.327 ± 0.15 kg/m3
mass density (293.15 K, x1 = 0.2019): 818.045 ± 0.15 kg/m3
mass density (293.15 K, x1 = 0.2529): 824.525 ± 0.14 kg/m3
mass density (293.15 K, x1 = 0.3032): 830.352 ± 0.14 kg/m3
mass density (293.15 K, x1 = 0.4059): 840.824 ± 0.14 kg/m3
mass density (293.15 K, x1 = 0.5048): 849.502 ± 0.14 kg/m3
mass density (293.15 K, x1 = 0.604): 857.039 ± 0.14 kg/m3
mass density (293.15 K, x1 = 0.7012): 863.524 ± 0.14 kg/m3
mass density (293.15 K, x1 = 0.8028): 869.466 ± 0.14 kg/m3
mass density (293.15 K, x1 = 0.8545): 872.203 ± 0.14 kg/m3
mass density (293.15 K, x1 = 0.9056): 874.745 ± 0.14 kg/m3
mass density (293.15 K, x1 = 0.954): 876.996 ± 0.15 kg/m3
mass density (293.15 K, x1 = 1): 879.031 ± 0.15 kg/m3
speed of sound (298.15 K, x1 = 0.0518): 1159 ± 1.2 m/s
speed of sound (298.15 K, x1 = 0.1029): 1168.9 ± 1.2 m/s
speed of sound (298.15 K, x1 = 0.1532): 1178.3 ± 1.2 m/s
speed of sound (298.15 K, x1 = 0.2019): 1186.1 ± 1.2 m/s
speed of sound (298.15 K, x1 = 0.2529): 1194.4 ± 1.2 m/s
speed of sound (298.15 K, x1 = 0.3032): 1201.3 ± 1.2 m/s
speed of sound (298.15 K, x1 = 0.4059): 1214 ± 1.2 m/s
speed of sound (298.15 K, x1 = 0.5048): 1225.3 ± 1.2 m/s
speed of sound (298.15 K, x1 = 0.604): 1234.6 ± 1.2 m/s
speed of sound (298.15 K, x1 = 0.7012): 1243 ± 1.2 m/s
speed of sound (298.15 K, x1 = 0.8028): 1250.2 ± 1.2 m/s
speed of sound (298.15 K, x1 = 0.8545): 1254.6 ± 1.2 m/s
speed of sound (298.15 K, x1 = 0.9056): 1257.5 ± 1.2 m/s
speed of sound (298.15 K, x1 = 0.954): 1259.8 ± 1.3 m/s
speed of sound (298.15 K, x1 = 1): 1260.9 ± 1.3 m/s
mass density (298.15 K, x1 = 0.0518): 791.104 ± 0.15 kg/m3
mass density (298.15 K, x1 = 0.1029): 799.527 ± 0.15 kg/m3
mass density (298.15 K, x1 = 0.1532): 807.143 ± 0.15 kg/m3
mass density (298.15 K, x1 = 0.2019): 813.834 ± 0.15 kg/m3
mass density (298.15 K, x1 = 0.2529): 820.286 ± 0.15 kg/m3
mass density (298.15 K, x1 = 0.3032): 826.103 ± 0.14 kg/m3
mass density (298.15 K, x1 = 0.4059): 836.541 ± 0.14 kg/m3
mass density (298.15 K, x1 = 0.5048): 845.196 ± 0.14 kg/m3
mass density (298.15 K, x1 = 0.604): 852.718 ± 0.14 kg/m3
mass density (298.15 K, x1 = 0.7012): 859.19 ± 0.14 kg/m3
mass density (298.15 K, x1 = 0.8028): 865.108 ± 0.14 kg/m3
mass density (298.15 K, x1 = 0.8545): 867.842 ± 0.14 kg/m3
mass density (298.15 K, x1 = 0.9056): 870.379 ± 0.15 kg/m3
mass density (298.15 K, x1 = 0.954): 872.629 ± 0.15 kg/m3
mass density (298.15 K, x1 = 1): 874.632 ± 0.15 kg/m3
speed of sound (303.15 K, x1 = 0.0518): 1141.8 ± 1.2 m/s
speed of sound (303.15 K, x1 = 0.1029): 1150.7 ± 1.2 m/s
speed of sound (303.15 K, x1 = 0.1532): 1159.2 ± 1.2 m/s
speed of sound (303.15 K, x1 = 0.2019): 1166.8 ± 1.2 m/s
speed of sound (303.15 K, x1 = 0.2529): 1174.2 ± 1.2 m/s
speed of sound (303.15 K, x1 = 0.3032): 1181 ± 1.2 m/s
speed of sound (303.15 K, x1 = 0.4059): 1193.5 ± 1.2 m/s
speed of sound (303.15 K, x1 = 0.5048): 1204.4 ± 1.2 m/s
speed of sound (303.15 K, x1 = 0.604): 1214.4 ± 1.2 m/s
speed of sound (303.15 K, x1 = 0.7012): 1222.6 ± 1.2 m/s
speed of sound (303.15 K, x1 = 0.8028): 1230.5 ± 1.2 m/s
speed of sound (303.15 K, x1 = 0.8545): 1234 ± 1.2 m/s
speed of sound (303.15 K, x1 = 0.9056): 1237.5 ± 1.2 m/s
speed of sound (303.15 K, x1 = 0.954): 1240.6 ± 1.3 m/s
speed of sound (303.15 K, x1 = 1): 1242.9 ± 1.3 m/s
mass density (303.15 K, x1 = 0.0518): 787.006 ± 0.15 kg/m3
mass density (303.15 K, x1 = 0.1029): 795.386 ± 0.15 kg/m3
mass density (303.15 K, x1 = 0.1532): 802.969 ± 0.15 kg/m3
mass density (303.15 K, x1 = 0.2019): 809.64 ± 0.15 kg/m3
mass density (303.15 K, x1 = 0.2529): 816.061 ± 0.15 kg/m3
mass density (303.15 K, x1 = 0.3032): 821.857 ± 0.14 kg/m3
mass density (303.15 K, x1 = 0.4059): 832.254 ± 0.14 kg/m3
mass density (303.15 K, x1 = 0.5048): 840.881 ± 0.14 kg/m3
mass density (303.15 K, x1 = 0.604): 848.373 ± 0.14 kg/m3
mass density (303.15 K, x1 = 0.7012): 854.833 ± 0.14 kg/m3
mass density (303.15 K, x1 = 0.8028): 860.733 ± 0.15 kg/m3
mass density (303.15 K, x1 = 0.8545): 863.464 ± 0.15 kg/m3
mass density (303.15 K, x1 = 0.9056): 865.982 ± 0.15 kg/m3
mass density (303.15 K, x1 = 0.954): 868.284 ± 0.15 kg/m3
mass density (303.15 K, x1 = 1): 870.204 ± 0.15 kg/m3
speed of sound (308.15 K, x1 = 0.0518): 1124.3 ± 1.2 m/s
speed of sound (308.15 K, x1 = 0.1029): 1133.2 ± 1.2 m/s
speed of sound (308.15 K, x1 = 0.1532): 1141.6 ± 1.2 m/s
speed of sound (308.15 K, x1 = 0.2019): 1149.2 ± 1.2 m/s
speed of sound (308.15 K, x1 = 0.2529): 1156.5 ± 1.2 m/s
speed of sound (308.15 K, x1 = 0.3032): 1163.2 ± 1.2 m/s
speed of sound (308.15 K, x1 = 0.4059): 1175.7 ± 1.2 m/s
speed of sound (308.15 K, x1 = 0.5048): 1186.7 ± 1.2 m/s
speed of sound (308.15 K, x1 = 0.604): 1196.6 ± 1.2 m/s
speed of sound (308.15 K, x1 = 0.7012): 1204.8 ± 1.2 m/s
speed of sound (308.15 K, x1 = 0.8028): 1212.8 ± 1.2 m/s
speed of sound (308.15 K, x1 = 0.8545): 1216.2 ± 1.2 m/s
speed of sound (308.15 K, x1 = 0.9056): 1219.7 ± 1.2 m/s
speed of sound (308.15 K, x1 = 0.954): 1222.9 ± 1.2 m/s
speed of sound (308.15 K, x1 = 1): 1224.9 ± 1.3 m/s
mass density (308.15 K, x1 = 0.0518): 782.711 ± 0.15 kg/m3
mass density (308.15 K, x1 = 0.1029): 791.07 ± 0.15 kg/m3
mass density (308.15 K, x1 = 0.1532): 798.631 ± 0.15 kg/m3
mass density (308.15 K, x1 = 0.2019): 805.279 ± 0.15 kg/m3
mass density (308.15 K, x1 = 0.2529): 811.703 ± 0.15 kg/m3
mass density (308.15 K, x1 = 0.3032): 817.482 ± 0.15 kg/m3
mass density (308.15 K, x1 = 0.4059): 827.85 ± 0.14 kg/m3
mass density (308.15 K, x1 = 0.5048): 836.456 ± 0.14 kg/m3
mass density (308.15 K, x1 = 0.604): 843.934 ± 0.14 kg/m3
mass density (308.15 K, x1 = 0.7012): 850.391 ± 0.15 kg/m3
mass density (308.15 K, x1 = 0.8028): 856.287 ± 0.15 kg/m3
mass density (308.15 K, x1 = 0.8545): 859.022 ± 0.15 kg/m3
mass density (308.15 K, x1 = 0.9056): 861.537 ± 0.15 kg/m3
mass density (308.15 K, x1 = 0.954): 863.829 ± 0.15 kg/m3
mass density (308.15 K, x1 = 1): 865.737 ± 0.15 kg/m3
speed of sound (313.15 K, x1 = 0.0518): 1103.5 ± 1.2 m/s
speed of sound (313.15 K, x1 = 0.1029): 1111.5 ± 1.2 m/s
speed of sound (313.15 K, x1 = 0.1532): 1121.5 ± 1.2 m/s
speed of sound (313.15 K, x1 = 0.2019): 1129.9 ± 1.2 m/s
speed of sound (313.15 K, x1 = 0.2529): 1138.4 ± 1.2 m/s
speed of sound (313.15 K, x1 = 0.3032): 1146.6 ± 1.2 m/s
speed of sound (313.15 K, x1 = 0.4059): 1159.4 ± 1.2 m/s
speed of sound (313.15 K, x1 = 0.5048): 1170.3 ± 1.2 m/s
speed of sound (313.15 K, x1 = 0.604): 1179.7 ± 1.2 m/s
speed of sound (313.15 K, x1 = 0.7012): 1187.9 ± 1.2 m/s
speed of sound (313.15 K, x1 = 0.8028): 1195.7 ± 1.2 m/s
speed of sound (313.15 K, x1 = 0.8545): 1199.3 ± 1.2 m/s
speed of sound (313.15 K, x1 = 0.9056): 1202.1 ± 1.2 m/s
speed of sound (313.15 K, x1 = 0.954): 1204.7 ± 1.2 m/s
speed of sound (313.15 K, x1 = 1): 1207 ± 1.3 m/s
mass density (313.15 K, x1 = 0.0518): 778.081 ± 0.16 kg/m3
mass density (313.15 K, x1 = 0.1029): 786.435 ± 0.15 kg/m3
mass density (313.15 K, x1 = 0.1532): 793.996 ± 0.15 kg/m3
mass density (313.15 K, x1 = 0.2019): 800.656 ± 0.15 kg/m3
mass density (313.15 K, x1 = 0.2529): 807.104 ± 0.15 kg/m3
mass density (313.15 K, x1 = 0.3032): 812.872 ± 0.15 kg/m3
mass density (313.15 K, x1 = 0.4059): 823.26 ± 0.15 kg/m3
mass density (313.15 K, x1 = 0.5048): 831.887 ± 0.15 kg/m3
mass density (313.15 K, x1 = 0.604): 839.389 ± 0.15 kg/m3
mass density (313.15 K, x1 = 0.7012): 845.859 ± 0.15 kg/m3
mass density (313.15 K, x1 = 0.8028): 851.775 ± 0.15 kg/m3
mass density (313.15 K, x1 = 0.8545): 854.514 ± 0.15 kg/m3
mass density (313.15 K, x1 = 0.9056): 857.049 ± 0.15 kg/m3
mass density (313.15 K, x1 = 0.954): 859.355 ± 0.15 kg/m3
mass density (313.15 K, x1 = 1): 861.241 ± 0.15 kg/m3
